The test system of one assay is UMSCC47 cells. Briefly: Cell proliferation (MTT) in UMSCC47 cells. The conditions noted are these: for cell proliferation, single-agent: UMSCC47, 10 μM, 24-72 hours. It counts as cell-based, human. The text has this:
(§1) FIG. 5A is an schematic illustration showing that CH1 has two distinct target sites. HIF1-α/p300 structures were used as guides to design helix mimetics that target site A and site B on the CH1 domain of p300. […] CH1iA (SEQ ID NO: 7) and CH1iB (SEQ ID NO: 8) were designed to mimic two helices from the C-terminal domain of HIF-1α. The peptides were locked into the helical conformation by the hydrogen bond surrogate method. FIG. 5C is a graph of p53 activity. UMSCC47 (left) and UMSCC74A (right) cells were co-transfected with a p53 Firefly luciferase reporter plasmid and a control Renilla luciferase plasmid. After 24 hours, cells were treated with control (vehicle), CH1iA (10 μM), or CH1iB (10 μM) for 24 hours. Firefly luciferase activity was normalized to Renilla luciferase activity to control for transfection efficiency. Data is normalized to control and presented as mean±SEM. *P<0.05, n=3. FIG. 5D is a western blot showing total and acetylated p53 levels. UMSCC47 (left) and UMSCC74A (right) cells were treated with control (vehicle), CH1iA (10 μM), or CH1iB (10 μM) for 24 hours. Cell lysates were immunoblotted with anti-p53 or anti-acetylated[K382]-p53 antibody. FIG. 5E is a pair of graphs of p300, p53, p21, miR-34a, and miR-200c expression. UMSCC47 (top panel) and UMSCC74A (bottom panel) cells were treated with control (vehicle), CH1iA (10 μM), or CH1iB (10 μM) for 24 hours. mRNA expression was determined using qPCR with validated TaqMan assays. Data is normalized to control cells and presented as mean±SEM. *P<0.01, control vs. CH1iB, n=3. FIG. 5F is a western blot showing HPV16 E6-p300 association. UMSCC47 cells were treated with control (vehicle), CH1iA (10 μM), or CH1iB (10 μM) for 24 hours. Cell lysates were extracted, immunoprecipitated with anti-p300 antibody, and immunoblotted with anti-E6 antibody. Cell lysates were immunoblotted with anti-E6 or anti-p300 antibody for input control. FIG. 5G is a set of graphs of cell proliferation. UMSCC47 (top left panel), UMSCC74A (top right panel), and IMR90 (human normal fibroblasts) (bottom panel) cells were treated with control (vehicle), CH1iA (10 μM), CH1iB (10 μM), cis-platinum (10 μM), CH1iA (10 μM) and cis-platinum (10 μM), or CH1iB (10 μM) and cis-platinum (10 μM) for 24, 48, or 72 hours. Data is normalized to Day 0 and presented as mean±SEM. *P<0.01, control vs. CH1iB or cis-platinum, **P<0.01 CH1iB or cis-platinum vs. CH1iB and cis-platinum, n=6.
FIG. 7A is a graph of p53 transcriptional activity. UMSCC47 cells were co-transfected with a p53 Firefly luciferase reporter plasmid and a control Renilla luciferase plasmid. After 24 hours, cells were treated with control (vehicle) or CH1iB-mut (10 μM) for 24 hours. Firefly luciferase activity was normalized to Renilla luciferase activity to control for transfection efficiency. Data is presented as mean±SEM. *P<0.05, n=5. FIG. 7B is a graph of cell proliferation. UMSCC47 cells were treated with control (vehicle), CH1iB-mut (10 μM), cis-platinum (10 μM), or CH1iB-mut (10 μM) and cis-platinum (10 μM) for 24 or 48 hours. Data is normalized to Day 0 and presented as mean±SEM. *P<0.01, control or CH1iB-mut vs. cis-platinum or cis-platinum+CH1iB-mut, n=6.
Cell proliferation was assessed using the MTT reagent (Roche Molecular Biochemicals, Nutley, N.J.) to detect metabolic active cells. Absorbance was measured at 570 nm in the Spectra Max 190 ELISA reader (Molecular Devices, Sunnyvale, Calif.) after overnight incubation. […]

For another assay, the system named is p53. Briefly: p53 transcriptional activity (Cignal p53 luciferase reporter) in UMSCC47 cells. Type of assay: cell-based, human. Particulars: 24 hours.
Excerpt: as §1
FIG. 6A is a western blot showing total and acetylated p53 levels. […] UMSCC47 cells were treated with control (vehicle), CH1iB (10 μM), cis-platinum (10 μM), or CH1iB (10 μM) and cis-platinum (10 μM) for 24 hours. mRNA expression was determined using qPCR with validated TaqMan assays. […]
In general terms: A reporter such as luciferase makes a cellular process visible.

In the case of “XELA*RALDQ-NH2 (ELXRALDQ; HBS: 4-pentenoic acid, N-allylalanine; C-terminal amide; CH1iB) [X 4-pentenoic acid, A* N-allylalanine]”, in the assay on UMSCC47 cells (UMSCC47, 10 μM with cis-platinum 10 μM), the “effect on anti-proliferative efficacy of cis-platinum (combination)” value was “potentiated”. In the assay with UMSCC47 cells, the “cell proliferation, single-agent” value was “inhibited”. In the assay on p53 (UMSCC47 (HPV-positive), 10 μM, vs control (vehicle)), this substance registered a p53 activity increase of 71%. Also, the “effect of cis-platinum on p53 activity” value with p53 (UMSCC47, CH1iB 10 μM with cis-platinum 10 μM) is given as “potentiated”.
Consider “XTAA*DCEYNAR (TAXDCEYNAR; HBS: 4-pentenoic acid, N-allylalanine; CH1iA) [X 4-pentenoic acid, A* N-allylalanine, reference compound]”, for which, in the assay with UMSCC47 cells, the “cell proliferation, single-agent” value was “inactive”. Also, in the assay on p53 (UMSCC47 (HPV-positive), 10 μM), the “p53 activity, effect in words” value was “no effect”.

The values are drawn from patent publication US9605026B2, “Hydrogen-bond surrogate peptides and peptidomimetics for p53 reactivation” (New York University, priority 2013, dated 2017).
